In one assay the test system is LNCap cells. The assay is described as follows: Cell viability assay (CellTiterGlo). The class given is cell-based. To be noted: Homo sapiens, 144 h, 6 days incubation, CellTiterGlo, read-out: LNCap (IC50).
In a further assay the test system is T47D cells. In words: Cell viability assay (CellTiterGlo). The class given is cell-based. Particulars: Homo sapiens, 144 h. In general terms: Cellular ATP, detected with luciferase, serves as a proxy for viable cell number.
Assay [1] has as its target T1, full-length androgen receptor (HEK293 cells stably expressing) (Homo sapiens, UniProt P10275).
T1 sequence (P10275 1-920): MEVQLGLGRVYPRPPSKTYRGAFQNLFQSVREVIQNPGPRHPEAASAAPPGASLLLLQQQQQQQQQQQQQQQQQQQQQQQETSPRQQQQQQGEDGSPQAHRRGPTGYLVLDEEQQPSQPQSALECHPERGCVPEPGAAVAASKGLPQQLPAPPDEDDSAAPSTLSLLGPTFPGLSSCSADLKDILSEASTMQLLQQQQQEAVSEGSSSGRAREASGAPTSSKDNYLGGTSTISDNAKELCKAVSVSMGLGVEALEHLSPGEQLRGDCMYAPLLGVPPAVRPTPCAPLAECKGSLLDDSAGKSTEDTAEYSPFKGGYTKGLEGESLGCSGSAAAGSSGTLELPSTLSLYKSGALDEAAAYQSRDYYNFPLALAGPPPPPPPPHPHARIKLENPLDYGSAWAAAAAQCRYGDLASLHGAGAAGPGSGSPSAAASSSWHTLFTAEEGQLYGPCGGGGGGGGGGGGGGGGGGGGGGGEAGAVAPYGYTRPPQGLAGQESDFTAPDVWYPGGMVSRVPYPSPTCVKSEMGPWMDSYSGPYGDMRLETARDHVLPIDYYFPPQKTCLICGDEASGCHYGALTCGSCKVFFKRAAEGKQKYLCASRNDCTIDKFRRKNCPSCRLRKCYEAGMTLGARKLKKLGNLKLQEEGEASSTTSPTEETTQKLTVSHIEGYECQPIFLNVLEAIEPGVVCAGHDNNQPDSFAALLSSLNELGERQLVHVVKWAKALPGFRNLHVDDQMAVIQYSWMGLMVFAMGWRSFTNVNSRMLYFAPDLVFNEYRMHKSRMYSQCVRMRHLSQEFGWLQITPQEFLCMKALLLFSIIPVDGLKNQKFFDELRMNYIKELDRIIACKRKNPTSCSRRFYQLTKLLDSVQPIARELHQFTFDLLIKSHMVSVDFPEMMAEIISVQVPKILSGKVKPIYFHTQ
In words: AR antagonism assay (luciferase reporter). (In a reporter assay the amount or activity of a reporter protein is the signal.)
Procedure: AR antagonism assay: To evaluate AR antagonist activity, test compound was added to the assay plate (top dose 10 μM, 3 fold serial dilution, 10 point dose response). HEK293 cells stably expressing the full-length androgen receptor were seeded at a density of 20000 cells/well in the assay plate. The assay plate was then incubated at room temperature for 10 minutes and at 37° C. 5% CO2 for 20 minutes. Testosterone was added to the assay plate at 1 nM final concentration and the assay plate incubated at 37° C., 5% CO2 for 20 h. […] Steady-glo was added to the assay plate and mixed at room temperature for 20 minutes on an orbital shaker, before reading out on the En Vision plate reader.

The subject of another assay is IEC6 cells. In words: Cell viability assay (CellTiterGlo). To be noted: Rattus norvegicus, IEC-6, 144 h, read-out: IEC-6 (IC50, nM).
In assay [2] the target is T2, Progesterone PR-B receptors from human breast carcinoma T47D cells (Homo sapiens, UniProt P06401).
T2 sequence (P06401 1-933): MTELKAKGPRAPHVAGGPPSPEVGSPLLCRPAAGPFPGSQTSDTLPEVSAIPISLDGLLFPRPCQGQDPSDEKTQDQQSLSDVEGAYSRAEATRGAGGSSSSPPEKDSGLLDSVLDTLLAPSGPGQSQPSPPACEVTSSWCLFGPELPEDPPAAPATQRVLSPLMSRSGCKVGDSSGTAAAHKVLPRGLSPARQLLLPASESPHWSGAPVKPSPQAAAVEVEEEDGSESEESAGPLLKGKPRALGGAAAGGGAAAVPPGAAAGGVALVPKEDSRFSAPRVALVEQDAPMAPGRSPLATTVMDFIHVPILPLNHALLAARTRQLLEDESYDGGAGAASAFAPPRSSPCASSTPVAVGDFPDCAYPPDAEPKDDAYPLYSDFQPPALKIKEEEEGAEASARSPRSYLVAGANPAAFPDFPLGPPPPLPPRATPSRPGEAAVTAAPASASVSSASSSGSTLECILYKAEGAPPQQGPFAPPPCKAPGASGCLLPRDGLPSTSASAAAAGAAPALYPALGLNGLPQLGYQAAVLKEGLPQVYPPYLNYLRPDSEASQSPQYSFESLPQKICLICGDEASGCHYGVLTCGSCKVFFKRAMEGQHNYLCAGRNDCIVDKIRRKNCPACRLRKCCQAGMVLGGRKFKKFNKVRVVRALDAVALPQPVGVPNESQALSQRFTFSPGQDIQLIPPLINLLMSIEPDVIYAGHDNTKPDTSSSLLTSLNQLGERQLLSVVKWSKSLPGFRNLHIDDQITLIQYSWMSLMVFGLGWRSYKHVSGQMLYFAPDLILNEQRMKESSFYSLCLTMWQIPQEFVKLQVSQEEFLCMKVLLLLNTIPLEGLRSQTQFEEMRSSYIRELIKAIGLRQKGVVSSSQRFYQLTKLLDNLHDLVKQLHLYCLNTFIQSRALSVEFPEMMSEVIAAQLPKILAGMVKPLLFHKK
The assay is described as follows: PR binding assay ([3H] Progesterone displacement).

Assay [3] addresses T3, ligand binding domain of the glucocorticoid receptor (HEK293 cells stably expressing) (Homo sapiens, UniProt P04150).
T3 sequence (P04150 524-758 limits assumed): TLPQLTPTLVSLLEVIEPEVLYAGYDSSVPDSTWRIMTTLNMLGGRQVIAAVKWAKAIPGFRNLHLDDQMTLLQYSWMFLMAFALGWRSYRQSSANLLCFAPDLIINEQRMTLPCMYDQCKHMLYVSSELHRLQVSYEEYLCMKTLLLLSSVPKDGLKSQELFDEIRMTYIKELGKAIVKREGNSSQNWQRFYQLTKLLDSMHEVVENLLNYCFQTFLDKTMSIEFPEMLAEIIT
The assay is described as follows: GR antagonism assay (luciferase reporter).

The target of assay [4] is T4, AR (cytosol from LnCaP cells) (Homo sapiens, UniProt P10275, T878A).
T4 sequence (P10275 1-920 T878A): T1 sequence (P10275 1-920) with T878A
The assay is described as follows: AR binding assay (3H-R1881 displacement).
Procedure: The plate was then centrifuged at 3000 rpm for 30 minutes at 4° C.

The test system of a further assay is 22Rv1 cells. In words: Cell viability assay (CellTiterGlo). Particulars: Homo sapiens, 22Rv1, 144 h, read-out: 22RV1 (IC50, nM).
The mark [5] stands for this setting: 6 days incubation, CellTiterGlo, read-out: T47D (IC50).

This passage reports IC50 results from US20260102501A1, “ANTI-CANCER NUCLEAR HORMONE RECEPTOR-TARGETING COMPOUNDS” (Nuvation Bio Inc., priority 2022, published 2026).

Usually IC50 stands for the concentration that gives 50% inhibition.

Residue numbers refer to the chain shown, from its start. Like-named read-outs stand apart in the source and are kept apart here. Bounds are passed on as bounds.

With `CC[C@@]1(O)C(=O)OCc2c1cc1n(c2=O)Cc2cc3c(CN4CCN(CCCCCCN(C)c5ccc([C@H]6C[C@@]7(C)[C@@H](CC[C@]7(OC(C)=O)C(C)=O)[C@@H]7CCC8=CC(=O)CCC8=C76)cc5)CC4)cccc3nc2-1` [Compound 38, (8S,11R,13S,14S,17R)-17-acetyl-11-(4-((6-(4-(((S)-4-ethyl-4-hydroxy-3,14-dioxo-3,4,12,14-tetrahydro-1H-pyrano[3′,4′:6,7]indolizino[1,2-b]quinolin-10-yl)methyl)piperazin-1-yl)hexyl)(methyl)amino)phenyl)-13-methyl-3-oxo-2,3,6,7,8,11,12,13,14,15,16,17-dodecahydro-1H-cyclopenta[a]phenanthren-17-yl acetate], the IC50 in the assay with LNCap cells was 101 to 1000 nM; in the assay on T47D cells (setting [5]), 101 to 1000 nM; in assay [1], greater than 1000 nM; with IEC6 cells, greater than 1000 nM; in assay [2], less than 10 nM; in assay [3], 10 to 100 nM. Further, the IC50 in assay [4] is less than 10 nM.

As for `CC[C@@]1(O)C(=O)OCc2c1cc1n(c2=O)Cc2cc3c(CN(C)C)c(OC(=O)N4CCN(C(=O)[C@H](CCCNC(N)=O)NC(=O)[C@@H](NCCCCCCN(C)c5ccc([C@H]6C[C@@]7(C)[C@@H](CC[C@]7(OC(C)=O)C(C)=O)[C@@H]7CCC8=CC(=O)CCC8=C76)cc5)C(C)C)CC4)ccc3nc2-1` [Compound 39, (S)-10-((dimethylamino)methyl)-4-ethyl-4-hydroxy-3,14-dioxo-3,4,12,14-tetrahydro-1H-pyrano[3′,4′:6,7]indolizino[1,2-b]quinolin-9-yl 4-((S)-2-((S)-2-((6-((4-((8S,11R,13S,14S,17R)-17-acetoxy-17-acetyl-13-methyl-3-oxo-2,3,6,7,8,11,12,13,14,15,16,17-dodecahydro-1H-cyclopenta[a]phenanthren-11-yl)phenyl)(methyl)amino)hexyl)amino)-3-methylbutanamido)-5-ureidopentanoyl)piperazine-1-carboxylate], the IC50 with T47D cells (read-out: T47D (IC50, nM)) is 101 to 1000 nM; in assay [1], greater than 1000 nM; with 22Rv1 cells, 101 to 1000 nM; in the assay with IEC6 cells, greater than 1000 nM; in assay [2], less than 10 nM; in assay [3], 101 to 1000 nM. Moreover, the IC50 in assay [4] lay in the range of 10 to 100 nM.

Turning to `CC[C@@]1(O)C(=O)OCc2c1cc1n(c2=O)Cc2cc3c(CN4CCN(C(=O)OCCCCN(C)c5ccc([C@H]6C[C@@]7(C)[C@@H](CC[C@]7(OC(C)=O)C(C)=O)[C@@H]7CCC8=CC(=O)CCC8=C76)cc5)CC4)c(O)ccc3nc2-1` [Compound 41, 4-((4-((8S,11R,13S,14S,17R)-17-acetoxy-17-acetyl-13-methyl-3-oxo-2,3,6,7,8,11,12,13,14,15,16,17-dodecahydro-1H-cyclopenta[a]phenanthren-11-yl)phenyl)(methyl)amino)butyl 4-(((S)-4-ethyl-4,9-dihydroxy-3,14-dioxo-3,4,12,14-tetrahydro-1H-pyrano[3′,4′:6,7]indolizino[1,2-b]quinolin-10-yl)methyl)piperazine-1-carboxylate], the concentration for half-maximal inhibition (IC50) was 10 to 100 nM with LNCap cells; 10 to 100 nM with T47D cells (setting [5]); 101 to 1000 nM in assay [1]; 101 to 1000 nM in the assay on IEC6 cells; less than 10 nM in assay [2]; less than 10 nM in assay [3]. In assay [4], this compound came in with an IC50 of 10 to 100 nM.
